Measurements from ChEMBL document CHEMBL1201862, “PubChem BioAssay data set” (2004).
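Cells were grown in 96-well plates and exposed to each compound for 48 hours at five concentrations; endpoints were interpolated linearly between bracketing concentrations, or set to the highest concentration if not reached. GI50: concentration for 50% inhibition of growth.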 Activity calls are given as the source filed them. Cut-off read from the data, not from the text of the source: active = GI50 up to about 1.1 µM and inactive = higher.

Columns and labels:
Experiment in all cases: NCI anticancer screen, dose series, 48 h
[1] = test system: ACHN
[2] = test system: A549
[3] = test system: HOP-92
[4] = test system: 786-0
[5] = test system: NCI-H460
[6] = test system: SK-MEL-28
[7] = test system: RPMI-8226
[8] = test system: MOLT-4
[9] = test system: A498
[10] = test system: SK-MEL-2
[11] = test system: SW-620
[12] = test system: U-251
[13] = test system: OVCAR-8
[14] = test system: NCI-H226

| SMILES | GI50 [1] | GI50 [2] | GI50 [3] | GI50 [4] | GI50 [5] | GI50 [6] | GI50 [7] | GI50 [8] | GI50 [9] | GI50 [10] | GI50 [11] | GI50 [12] | GI50 [13] | GI50 [14] |
| --- | --- | --- | --- | --- | --- | --- | --- | --- | --- | --- | --- | --- | --- | --- |
| CCN(CC)c1ccc(C(=O)c2ccccc2C(=O)O)c(O)c1 | > 100 µM (inactive) | > 100 µM (inactive) | > 100 µM (inactive) | > 100 µM (inactive) | > 100 µM (inactive) | > 100 µM (inactive) | > 100 µM (inactive) | > 100 µM (inactive) | > 100 µM (inactive) | > 100 µM (inactive) | > 100 µM (inactive) | > 100 µM (inactive) | > 100 µM (inactive) | – |
| S=C(Nc1ccccc1)N1N=C2c3ccccc3CC[C@H]2[C@@H]1c1ccccc1 | 6.78 µM (inactive) | 4.66 µM (inactive) | – | 4.31 µM (inactive) | 3.64 µM (inactive) | 8.09 µM (inactive) | 4.34 µM (inactive) | 4 µM (inactive) | 11.7 µM (inactive) | 2.35 µM (inactive) | 2.4 µM (inactive) | 7.59 µM (inactive) | 10.3 µM (inactive) | 4.23 µM (inactive) |
| C/C(CCc1ccccc1)=N\NC(N)=S | > 100 µM (inactive) | > 100 µM (inactive) | > 100 µM (inactive) | > 100 µM (inactive) | > 100 µM (inactive) | > 100 µM (inactive) | 27.3 µM (inactive) | 72.8 µM (inactive) | > 100 µM (inactive) | > 100 µM (inactive) | > 100 µM (inactive) | > 100 µM (inactive) | > 100 µM (inactive) | > 100 µM (inactive) |
| CCCCOC(=O)CNC(=O)OCCCCC#CC#CCCCCOC(=O)NCC(=O)OCCCC | > 100 µM (inactive) | > 100 µM (inactive) | – | > 100 µM (inactive) | > 100 µM (inactive) | – | > 100 µM (inactive) | > 100 µM (inactive) | > 100 µM (inactive) | – | > 100 µM (inactive) | > 100 µM (inactive) | > 100 µM (inactive) | > 100 µM (inactive) |
| C/C=C/C1(C)/C(=N\O)C(C)(CCC)C(=O)N1O (centres undefined) | > 100 µM (inactive) | > 100 µM (inactive) | > 100 µM (inactive) | > 100 µM (inactive) | > 100 µM (inactive) | > 100 µM (inactive) | > 100 µM (inactive) | > 100 µM (inactive) | > 100 µM (inactive) | > 100 µM (inactive) | > 100 µM (inactive) | > 100 µM (inactive) | > 100 µM (inactive) | > 100 µM (inactive) |
| N#C/C(=C\c1ccccc1)C(NO)Nc1ccccc1 (centres undefined) | 72.9 µM (inactive) | > 100 µM (inactive) | 57.3 µM (inactive) | > 100 µM (inactive) | > 100 µM (inactive) | > 100 µM (inactive) | 58.1 µM (inactive) | 31.9 µM (inactive) | 80.2 µM (inactive) | > 100 µM (inactive) | 74.8 µM (inactive) | 30.3 µM (inactive) | 66.1 µM (inactive) | > 100 µM (inactive) |
| Nc1nc(Cl)cc(NCCCCCCNc2cc(Cl)nc(N)n2)n1 | 2.88 µM (inactive) | 60.7 µM (inactive) | 25.4 µM (inactive) | > 100 µM (inactive) | > 100 µM (inactive) | – | 45.3 µM (inactive) | 48.2 µM (inactive) | – | 87.9 µM (inactive) | > 100 µM (inactive) | > 100 µM (inactive) | > 100 µM (inactive) | 25.8 µM (inactive) |
| C#Cc1cc(CN(CC(=O)OC(C)(C)C)CC(=O)OC(C)(C)C)nc(CN(CC(=O)OC(C)(C)C)CC(=O)OC(C)(C)C)c1 | 4.84 µM (inactive) | 7.85 µM (inactive) | – | 7.06 µM (inactive) | 7.23 µM (inactive) | 7.5 µM (inactive) | 2.75 µM (inactive) | 2.62 µM (inactive) | 17.8 µM (inactive) | 2.28 µM (inactive) | 4.81 µM (inactive) | 5.07 µM (inactive) | 5.24 µM (inactive) | 0.498 µM (active) |
| O=C1[C@@H]2C(c3ccc(Cl)cc3Cl)=NO[C@@H]2C(=O)N1c1ccc(Cc2ccc(N3C(=O)[C@H]4C(c5ccc(Cl)cc5Cl)=NO[C@H]4C3=O)cc2)cc1 | – | > 100 µM (inactive) | 17.7 µM (inactive) | 45.9 µM (inactive) | – | 67.1 µM (inactive) | 21.2 µM (inactive) | 17.3 µM (inactive) | > 100 µM (inactive) | > 100 µM (inactive) | 71.8 µM (inactive) | – | 40.7 µM (inactive) | > 100 µM (inactive) |
| C/C(CC(=O)Nc1cccc(Cl)c1C)=N\NC(N)=S | – | > 100 µM (inactive) | 30.1 µM (inactive) | > 100 µM (inactive) | > 100 µM (inactive) | > 100 µM (inactive) | > 100 µM (inactive) | > 100 µM (inactive) | > 100 µM (inactive) | > 100 µM (inactive) | > 100 µM (inactive) | > 100 µM (inactive) | > 100 µM (inactive) | > 100 µM (inactive) |
| Cc1cc(C)nc(NS(=O)(=O)c2ccc(Nc3c4ccccc4nc4c(C(=O)Nc5ccc(S(=O)(=O)N=C(N)N)cc5)ccc(Cl)c34)cc2)n1 | 43.5 µM (inactive) | > 100 µM (inactive) | – | 38.9 µM (inactive) | 53.1 µM (inactive) | > 10 µM (inactive) | 28.2 µM (inactive) | 23.5 µM (inactive) | 34.6 µM (inactive) | – | – | 18.2 µM (inactive) | 17.5 µM (inactive) | 21.9 µM (inactive) |
| Cc1cc2c(c3c1c1ccccc1n3C)C(=O)c1ccccc1C2=O | > 100 µM (inactive) | > 100 µM (inactive) | 16.9 µM (inactive) | > 100 µM (inactive) | > 100 µM (inactive) | > 100 µM (inactive) | > 100 µM (inactive) | 53.6 µM (inactive) | – | > 100 µM (inactive) | > 100 µM (inactive) | > 100 µM (inactive) | > 100 µM (inactive) | – |
| CC1=NN(C(=O)c2ccc(Cl)cc2)C(=O)/C1=C/c1ccco1 | > 100 µM (inactive) | > 100 µM (inactive) | > 100 µM (inactive) | > 100 µM (inactive) | > 100 µM (inactive) | > 100 µM (inactive) | > 100 µM (inactive) | > 100 µM (inactive) | > 100 µM (inactive) | > 100 µM (inactive) | > 100 µM (inactive) | > 100 µM (inactive) | > 100 µM (inactive) | – |
| Cc1ccccc1CN1CC=c2ccccc2=N1 | > 100 µM (inactive) | 93.5 µM (inactive) | > 100 µM (inactive) | > 100 µM (inactive) | > 100 µM (inactive) | > 100 µM (inactive) | > 100 µM (inactive) | – | > 100 µM (inactive) | > 100 µM (inactive) | > 100 µM (inactive) | > 100 µM (inactive) | > 100 µM (inactive) | > 100 µM (inactive) |
| CC(C)(C)N/N=N/c1cn(C2OC(CO)C(O)C2O)c(=O)[nH]c1=O (centres undefined) | > 100 µM (inactive) | > 100 µM (inactive) | > 100 µM (inactive) | > 100 µM (inactive) | 64.9 µM (inactive) | > 100 µM (inactive) | 20 µM (inactive) | > 100 µM (inactive) | > 100 µM (inactive) | > 100 µM (inactive) | 17.6 µM (inactive) | – | > 100 µM (inactive) | > 100 µM (inactive) |
| COC(=O)C(CCC1(C)OCCO1)C(C)=O (centres undefined) | > 100 µM (inactive) | > 100 µM (inactive) | – | > 100 µM (inactive) | > 100 µM (inactive) | > 100 µM (inactive) | – | > 100 µM (inactive) | > 100 µM (inactive) | > 100 µM (inactive) | > 100 µM (inactive) | > 100 µM (inactive) | > 100 µM (inactive) | > 100 µM (inactive) |
| CCCCCCCCCCCCCS(=O)(=O)O | > 100 µM (inactive) | > 100 µM (inactive) | > 100 µM (inactive) | > 100 µM (inactive) | > 100 µM (inactive) | > 100 µM (inactive) | – | – | > 100 µM (inactive) | > 100 µM (inactive) | > 100 µM (inactive) | > 100 µM (inactive) | > 100 µM (inactive) | > 100 µM (inactive) |
| O=C1C=CC(=CC=C2C=CN(CCCCCCCCCCC(=O)NCCCCCCCCCCCC(=O)O)C=C2)C=C1 | > 100 µM (inactive) | > 100 µM (inactive) | > 100 µM (inactive) | > 100 µM (inactive) | > 100 µM (inactive) | > 100 µM (inactive) | > 100 µM (inactive) | > 100 µM (inactive) | > 100 µM (inactive) | – | > 100 µM (inactive) | > 100 µM (inactive) | > 100 µM (inactive) | > 100 µM (inactive) |
| CN1CCS(=O)(=O)NC(Cc2ccccc2)C(=O)N2CCCC2C1=O (centres undefined) | > 100 µM (inactive) | > 100 µM (inactive) | – | > 100 µM (inactive) | – | > 100 µM (inactive) | > 100 µM (inactive) | > 100 µM (inactive) | > 100 µM (inactive) | > 100 µM (inactive) | > 100 µM (inactive) | > 100 µM (inactive) | > 100 µM (inactive) | > 100 µM (inactive) |
| CC1C[C@H](OC(N)=O)C(C)CC1=O (some centres undefined) | > 100 µM (inactive) | > 100 µM (inactive) | 30.2 µM (inactive) | > 100 µM (inactive) | > 100 µM (inactive) | – | > 100 µM (inactive) | > 100 µM (inactive) | > 100 µM (inactive) | > 100 µM (inactive) | > 100 µM (inactive) | > 100 µM (inactive) | > 100 µM (inactive) | – |
| COc1cc(CCc2ccc(OC(C)=O)cc2)cc(OC)c1OC | 79.4 µM (inactive) | > 100 µM (inactive) | 49 µM (inactive) | > 100 µM (inactive) | > 100 µM (inactive) | > 100 µM (inactive) | 86.3 µM (inactive) | > 100 µM (inactive) | > 100 µM (inactive) | – | > 100 µM (inactive) | > 100 µM (inactive) | > 100 µM (inactive) | > 100 µM (inactive) |
